38 compounds from the CombiSolv-Exp solvation set (Vermeire and Green 2021) can be followed below.

The nature of the data set: solvent given as SMILES.
Setting [1] is: in CCCCCCCCC=CCCCCCCCC(=O)OCC(COC(=O)CCCCCCCC=CCCCCCCCC)OC(=O)CCCCCCCC=CCCCCCCCC

On to `Brc1cc(Br)c(Br)cc1Br`, for which the “solvation free energy, 298 K” value is -9.71 kcal/mol under setting [1] and -2.54 kcal/mol (in O).
Consider `CCCCCC=CCC=CCCCCCCCC(=O)OC`, for which the “solvation free energy, 298 K” value (in O) was -2.48 kcal/mol.
As for `CNC(=O)c1ccccc1`, the “solvation free energy, 298 K” value (in CC(C)CC(C)(C)C) is -7.63 kcal/mol.
As to `CNC(=O)Oc1cccc2ccccc12`, the “solvation free energy, 298 K” value under setting [1] was -12.6 kcal/mol.
In the case of `CCCCCCCOC(C)=O`, the “solvation free energy, 298 K” value is -4.84 kcal/mol (in NC=O) and -2.07 kcal/mol (in O).
Consider `CCCCCCCCCCCCCCCCCCCCCCCCCCC`, for which the “solvation free energy, 298 K” value is, setting by setting: (in CC(=O)N(C)C) -18.4 kcal/mol; (in CN(C)C=O) -18.5 kcal/mol; (in O) 5.74 kcal/mol.
For `CCC(=O)CC(C)=O`, the “solvation free energy, 298 K” value (in O) was -4.79 kcal/mol.
For the compound `Nc1ccc([N+](=O)[O-])cc1`, the “solvation free energy, 298 K” value is, setting by setting: (in CC(C)CC(C)(C)C) -8.11 kcal/mol; (in CC(C)CO) -11.6 kcal/mol; (in CCC(C)O) -11.9 kcal/mol; (in CCCCOC(C)=O) -12.7 kcal/mol; (in CCCCOCCCC) -11.1 kcal/mol; (in COC(C)=O) -13.2 kcal/mol.
As for `CN1CCCCC1`, the “solvation free energy, 298 K” value runs as follows: (in COC(C)(C)C) -4.8 kcal/mol; (in O) -3.88 kcal/mol.
Turning to `ClC(Cl)C(Cl)(Cl)Cl`, for the setting “in O”, the “solvation free energy, 298 K” value is -1.31 kcal/mol.
With `O=C(O)C=CC(=O)O`, the “solvation free energy, 298 K” value was -10.2 kcal/mol (in CC(C)=O); -10.8 kcal/mol (in CC(C)O); -10.6 kcal/mol (in CCCO); -10.8 kcal/mol (in CCO); -9.96 kcal/mol (in O); -9.9 kcal/mol (in O=C1CCCCC1).
Consider `CCCC(=O)CC(C)=O`, for which the “solvation free energy, 298 K” value (in O) is -4.39 kcal/mol.
As to `CCC=C(C)C`, the “solvation free energy, 298 K” value (in C=CCCCCCCCCCCCCCC) was -3.42 kcal/mol; the “solvation free energy, 298 K” value (in CN1CCCC1=O) was -3.06 kcal/mol; the “solvation free energy, 298 K” value (in CN(C)C=O) is -3.12 kcal/mol; the “solvation free energy, 298 K” value (in O) came out at 1.47 kcal/mol.
Regarding `ClC(Cl)Cl`, the “solvation free energy, 298 K” value reads like this: (in Brc1cccc2ccccc12) -3.79 kcal/mol; (in C1CCCC1) -3.87 kcal/mol; (in C1CCOC1) -5.13 kcal/mol; (in C1COCCO1) -4.64 kcal/mol; (in C=CCCCCCCCCCCCCCC) -3.42 kcal/mol; (in CC#N) -4.31 kcal/mol. For the same compound, the “solvation free energy, 298 K” value reads like this: (in CC(=O)CC(C)C) -4.51 kcal/mol; (in CC(=O)N(C)C) -5.18 kcal/mol; (in CC(=O)OCc1ccccc1) -4.25 kcal/mol; (in CC(C)=O) -4.67 kcal/mol; (in CCC(C)=O) -4.72 kcal/mol; (in CCCCCCC) -3.62 kcal/mol. For the same compound, the “solvation free energy, 298 K” value was -3.52 kcal/mol (in CCCCCCCC); -4.02 kcal/mol under setting [1]; -3.35 kcal/mol (in CCCCCCCCCCCCCC); -3.38 kcal/mol (in CCCCCCCCCCCCCCCC); -3.65 kcal/mol (in CCCCCCCCCCCCO); -3.59 kcal/mol (in CCCCCCCCN(CCCCCCCC)CCCCCCCC). Besides, the “solvation free energy, 298 K” value reads like this: (in CCCCCCCCO) -3.8 kcal/mol; (in CCCCCN(CCCCC)CCCCC) -3.82 kcal/mol; (in CCCCCl) -4.08 kcal/mol; (in CCCCN(C=O)CCCC) -4.83 kcal/mol; (in CCCCN(CCCC)CCCC) -3.69 kcal/mol; (in CCCCO) -4.02 kcal/mol. For the same compound, the “solvation free energy, 298 K” value runs as follows: (in CCCCOCCCC) -4.16 kcal/mol; (in CCN(CC)C(C)=O) -5.18 kcal/mol; (in CCNC(C)=O) -4.57 kcal/mol; (in CCNC=O) -4.41 kcal/mol; (in CCO) -4.12 kcal/mol; (in CCOC(=O)c1ccccc1C(=O)OCC) -4.1 kcal/mol. Besides, the “solvation free energy, 298 K” value was -4.61 kcal/mol (in CCOC(C)=O); -5.24 kcal/mol (in CN1CCCC1=O); -5.27 kcal/mol (in CN1CCCCC1=O); -4.57 kcal/mol (in CNC(C)=O); -4.12 kcal/mol (in CO); -4.67 kcal/mol (in COC(C)=O). For the same compound, the “solvation free energy, 298 K” value runs as follows: (in COCOC) -4.27 kcal/mol; (in CS(C)=O) -4.72 kcal/mol; (in ClC(Cl)(Cl)Cl) -4 kcal/mol; (in ClCCCl) -4.17 kcal/mol; (in NC=O) -2.91 kcal/mol; (in O) -1.08 kcal/mol. The “solvation free energy, 298 K” value (in O=C1CCCCC1) is -4.73 kcal/mol; the “solvation free energy, 298 K” value (in S=C=S) is -4.15 kcal/mol; the “solvation free energy, 298 K” value (in [2H]O[2H]) is -1.26 kcal/mol; the “solvation free energy, 298 K” value (in c1ccc2ncccc2c1) is -4.41 kcal/mol.
As to `Clc1cc(Cl)c(-c2c(Cl)cccc2Cl)c(Cl)c1`, the “solvation free energy, 298 K” value (in O) is -1.96 kcal/mol.
Still for that read-out and setting: the same measure for `CCCCCCC=O`: -2.67 kcal/mol.
As to `O=[N+]([O-])c1cccc(Cl)c1Cl`, the “solvation free energy, 298 K” value reads like this: (in C1CCCCC1) -8.4 kcal/mol; (in CC(C)O) -8.56 kcal/mol; (in CCCCCC) -7.97 kcal/mol; (in CCCCCCC) -8.07 kcal/mol; (in CCCCO) -8.71 kcal/mol; (in CCCO) -8.65 kcal/mol. Besides, the “solvation free energy, 298 K” value was -9.93 kcal/mol (in CCOC(C)=O), -9.46 kcal/mol (in ClC(Cl)(Cl)Cl) and -4.22 kcal/mol (in O).
As for `CC1=CC(=O)CC(C)(C)C1`, the “solvation free energy, 298 K” value (in O) was -5.18 kcal/mol.
As to `O=C(O)Cc1ccc(C(=O)O)cc1`, the “solvation free energy, 298 K” value runs as follows: (in C=CCCCCCCCCCCCCCC) -10.5 kcal/mol; (in O) -16.5 kcal/mol.
On to `Cc1ccc(N(O)C(=O)c2ccccc2C)cc1`, for which, where the note is “in O”, the “solvation free energy, 298 K” value is -11.5 kcal/mol.
Turning to `CC(=O)OCCC(C)CCC=C(C)C` (centres undefined), for the setting “in O”, the “solvation free energy, 298 K” value is -2.99 kcal/mol.
In the case of `CCOP(=S)(OCC)Oc1nc(Cl)c(Cl)cc1Cl`, under setting [1], the “solvation free energy, 298 K” value is -14.4 kcal/mol.
As to `CC1=CCC(C(C)C)C=C1` (centres undefined), the “solvation free energy, 298 K” value (in O) stood at 0.2 kcal/mol.
Still for that read-out and setting: the same measure for `CCCCCCCCCC(=O)O`: -5.28 kcal/mol.
Take `COC(=O)c1ccc(Cl)c(Cl)c1`: the “solvation free energy, 298 K” value is, setting by setting: (in CN(C)C=O) -9.19 kcal/mol; (in O) -3.75 kcal/mol.
As to `Cc1cccc(C)c1N`, the “solvation free energy, 298 K” value (in O) was -5.21 kcal/mol.
As to `O=[O+][O-]`, the “solvation free energy, 298 K” value by setting is: (in COC(C)=O) -0.29 kcal/mol; (in O) 0.82 kcal/mol.
Consider `CCOCCOC(=O)c1ccccc1C(=O)OCCOCC`, for which the “solvation free energy, 298 K” value (in O) was -13.4 kcal/mol.
Regarding `OCCCl`, the “solvation free energy, 298 K” value was -4.8 kcal/mol (in Brc1ccccc1); -5.73 kcal/mol (in CCCCCCCCCCO); -5.87 kcal/mol (in CCCCCCCCO); -4.77 kcal/mol (in Cc1ccc(C)cc1); -4.69 kcal/mol (in Cc1cccc(C)c1); -4.74 kcal/mol (in Cc1ccccc1C). For the same compound, the “solvation free energy, 298 K” value (in Clc1ccccc1) was -4.62 kcal/mol and the “solvation free energy, 298 K” value (in O) was -6.28 kcal/mol.
On to `FC(F)F`, for which the “solvation free energy, 298 K” value is -0.46 kcal/mol (in CCCCCCCC(=O)OCC(COC(=O)CCCCCCC)OC(=O)CCCCCCC); 0.06 kcal/mol (in CCCCCCCCC); -0.21 kcal/mol (in CCCCCCCCO); -1.35 kcal/mol (in CN1CCCC1=O); -0.86 kcal/mol (in CN(C)C=O); 0.7 kcal/mol (in O).
Regarding `FC(C(F)(F)F)C(F)(F)F`, the “solvation free energy, 298 K” value was -1.12 kcal/mol (in CCCCCCCCO), -0.6 kcal/mol (in CN1CCCC1=O) and 2.01 kcal/mol (in O).
Turning to `CCCOC`, the “solvation free energy, 298 K” value (in O) was -1.66 kcal/mol.
Consider `Nc1ccc2ccccc2c1`, for which the “solvation free energy, 298 K” value runs as follows: (in CCCCCC) -8.89 kcal/mol; (in CCCCCCCC) -8.96 kcal/mol; (in O) -7.47 kcal/mol.
Take `O=COc1ccccc1`: where the note is “in O”, the “solvation free energy, 298 K” value is -3.82 kcal/mol.
`CC(C)(C)Br`: the “solvation free energy, 298 K” value by setting is: (in Brc1ccccc1) -3.89 kcal/mol; (in C1CCOC1) -3.87 kcal/mol; (in C1COCCO1) -3.81 kcal/mol; (in C=CCCCCCCCCCCCCCC) -3.56 kcal/mol; (in CC(=O)N(C)C) -3.52 kcal/mol; (in CC(C)(C)O) -3.36 kcal/mol. Also, the “solvation free energy, 298 K” value by setting is: (in CC(C)=O) -3.86 kcal/mol; (in CC(C)O) -3.23 kcal/mol; (in CCCCCC) -3.75 kcal/mol; (in CCCCO) -3.3 kcal/mol; (in CCCO) -3.19 kcal/mol; (in CCOC(C)=O) -4.05 kcal/mol. In addition, the “solvation free energy, 298 K” value reads like this: (in CCOCC) -3.85 kcal/mol; (in CN1CCCC1=O) -3.44 kcal/mol; (in CN(C)C=O) -3.59 kcal/mol; (in ClC(Cl)(Cl)Cl) -4.13 kcal/mol; (in ClCCCl) -4.02 kcal/mol; (in Clc1ccccc1) -3.93 kcal/mol. The “solvation free energy, 298 K” value is -3.64 kcal/mol (in N#Cc1ccccc1) and 0.85 kcal/mol (in O).
For `COC(=O)c1cccc([N+](=O)[O-])c1`, the “solvation free energy, 298 K” value runs as follows: (in CN(C)C=O) -10.8 kcal/mol; (in O) -6.79 kcal/mol.
As to `CCn1ccc(NS(=O)(=O)c2ccc(N)cc2)nc1=O`, the “solvation free energy, 298 K” value (in O) is -20.6 kcal/mol.
Take `O=C(O)C(O)c1ccccc1` (centres undefined): the “solvation free energy, 298 K” value is -9.41 kcal/mol (in C=CCCCCCCC=C) and -13.7 kcal/mol (in O).
